Results taken from PubChem BioAssay AID1919015 (Molecular Pharmacology Branch, DTP, NCI, 2023).

System: OVCAR-5 complex spheroids with HUVEC/MSC, viability, % test/control
Test: Anticancer human tumor OVCAR-5 cell line growth inhibition [AhR];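 note: spheroids exposed to compounds for 7 days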;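 for viability, T/C: 100% = DMSO vehicle control wells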
Conditions: for IC50: curve of first compound; for viability, T/C: stronger effect = lower value
Outline: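 Spheroids combined tumor cells with HUVEC endothelial cells and human MSCs as stroma. AhR antagonists were paired with standard or investigational drugs, each dosed in half-log steps down from near clinical Cmax, or from 10 microM where Cmax was unknown.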

CC(C)c1c(-c2ccccc2)nc2c(C#N)c[nH]n2c1=O + Cc1cncc(-c2nc(NCCc3c[nH]c4ccccc34)c3ncn(C(C)C)c3n2)c1
IC50 (second compound 0.1 µM): > 10 µM | IC50 (second compound 0.316 µM): > 10 µM | IC50 (second compound 1 µM): > 10 µM | IC50 (second compound 3.16 µM): > 10 µM | IC50 (second compound 10 µM): < 0.0316 µM | viability, T/C (second compound 0.1 µM, first compound 0.0316 µM): 100% | viability, T/C (second compound 0.1 µM, first compound 0.1 µM): 99.5% | viability, T/C (second compound 0.1 µM, first compound 0.316 µM): 100% | viability, T/C (second compound 0.1 µM, first compound 1 µM): 100% | viability, T/C (second compound 0.1 µM, first compound 3.16 µM): 96.4% | viability, T/C (second compound 0.1 µM, first compound 10 µM): 106% | viability, T/C (second compound 0.316 µM, first compound 0.0316 µM): 101% | viability, T/C (second compound 0.316 µM, first compound 0.1 µM): 103% | viability, T/C (second compound 0.316 µM, first compound 0.316 µM): 98.5% | viability, T/C (second compound 0.316 µM, first compound 1 µM): 102% | viability, T/C (second compound 0.316 µM, first compound 3.16 µM): 95.2% | viability, T/C (second compound 0.316 µM, first compound 10 µM): 106% | viability, T/C (second compound 1 µM, first compound 0.0316 µM): 96.8% | viability, T/C (second compound 1 µM, first compound 0.1 µM): 99.1% | viability, T/C (second compound 1 µM, first compound 0.316 µM): 100% | viability, T/C (second compound 1 µM, first compound 1 µM): 94.1% | viability, T/C (second compound 1 µM, first compound 3.16 µM): 94.8% | viability, T/C (second compound 1 µM, first compound 10 µM): 103% | viability, T/C (second compound 3.16 µM, first compound 0.0316 µM): 81.5% | viability, T/C (second compound 3.16 µM, first compound 0.1 µM): 84.1% | viability, T/C (second compound 3.16 µM, first compound 0.316 µM): 86.1% | viability, T/C (second compound 3.16 µM, first compound 1 µM): 83.6% | viability, T/C (second compound 3.16 µM, first compound 3.16 µM): 90.1% | viability, T/C (second compound 3.16 µM, first compound 10 µM): 88.7% | viability, T/C (second compound 10 µM, first compound 0.0316 µM): 14.2% | viability, T/C (second compound 10 µM, first compound 0.1 µM): 14.2% | viability, T/C (second compound 10 µM, first compound 0.316 µM): 17.8% | viability, T/C (second compound 10 µM, first compound 1 µM): 16.3% | viability, T/C (second compound 10 µM, first compound 3.16 µM): 16% | viability, T/C (second compound 10 µM, first compound 10 µM): 25.1%
